Data taken from PubChem BioAssay AID588374 (Southern Research Specialized Biocontainment Screening …, 2011).
Values joined by “and” are separate entries in the source; they are usually repeats but may differ in a detail not shown here. Equal values may be shown once. Inconclusive results are not listed. Active and inactive are the calls of the source.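 How the source made its calls: active means viability below 70% at one or more tested concentrations in every replicate; inactive means viability above 70% at all doses, or replicates disagree.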

System: not listed separately
Experiment: host cell viability loss, Vero E6 – synthesized analogs, extended characterization 1, cytotoxicity control for West Nile virus antiviral project, SAR follow-up (AID 588374)
Conditions: Vero E6 viability, CellTiter-Glo luminescence, 72 h; at 50 µM (top of the series)

Compound | viability
O=C(CSc1nc2cccc(F)c2c(=O)n1-c1ccccc1)Nc1ccc2ncsc2c1 | 86.2% (inactive)
O=C(CSc1nc2ccccc2c(=O)n1-c1ccc(Cl)c(Cl)c1)NC1CCc2ccccc21 (configuration not stated) | 73.8% (inactive)
O=C(CSc1nc2ccccc2c(=O)n1-c1ccc(F)c(F)c1)Nc1nccs1 | 74.1% (inactive)
O=C(CSc1nc2ccccc2c(=O)n1-c1cc(F)c(F)c(F)c1)Nc1ccc2c(c1)CCC2 | 76.3% (inactive)
Cn1c(NC(=O)CSc2nc3ccccc3c(=O)n2-c2ccc(Cl)c(Cl)c2)nc2ccccc21 | 74.2% (inactive)
O=C(CSc1nc2ccccc2c(=O)n1-c1ccc(Cl)c(Cl)c1)Nc1cccc2c1CCC2 | 76.2% (inactive)
O=C(CSc1nc2ccccc2c(=O)n1-c1ccccc1)Nc1nc(-c2ccccc2)cs1 | 77.7% (inactive)

Same assay, conditions: Vero E6 viability, CellTiter-Glo luminescence, 72 h; at 100 µM (top of the series)

Compound | viability
O=C(CSc1nc2ccccc2c(=O)n1-c1ccccc1)Nc1ccc2ncsc2c1 | 88.3% (inactive)
O=C(CSc1nc2ccccc2c(=O)n1-c1cc(Cl)cc(Cl)c1)Nc1cccc2ccccc12 | 83.8% (inactive)
O=C(CCCSc1nc2cccc(F)c2c(=O)n1-c1ccc(F)c(Br)c1)Nc1ccc2c(c1)CCC2 | 81.7% (inactive)
O=C(CSc1nc2ccccc2c(=O)n1-c1ccc(Cl)c(Cl)c1)Nc1ccc2c(c1)CCC2 | 70.3% (inactive)
O=C(CSc1nc2ccccc2c(=O)n1-c1ccccc1)Nc1nccs1 | 96.3% (inactive)
O=C(CCCSc1nc2cccc(F)c2c(=O)n1-c1ccc(Cl)c(F)c1)Nc1ccc2c(c1)CCC2 | 82.9% (inactive)
O=C(CCCSc1nc2ccccc2c(=O)n1-c1ccccc1)Nc1ccc2c(c1)CCC2 | 85.5% (inactive)
O=C(CCCSc1nc2ccccc2c(=O)n1-c1ccc(Cl)c(Cl)c1)Nc1ccc2c(c1)CCC2 | 80.6% (inactive)
O=C(CSc1nc2ccccc2c(=O)n1-c1ccc(F)c(F)c1)NC1CCCc2ccccc21 (configuration not stated) | 76.2% (inactive)
O=C(CSc1nc2ccccc2c(=O)n1-c1ccccc1)NC1Cc2ccccc2C1 | 75.3% (inactive)
Cc1nc2cc(NC(=O)CSc3nc4ccccc4c(=O)n3-c3ccccc3)ccc2s1 | 75.1% (inactive)
O=C(CSc1nc2ccccc2c(=O)n1-c1ccc(Cl)c(Cl)c1)Nc1ccc2c(c1)OCO2 | 74.2% (inactive)
O=C(CSc1nc2ccccc2c(=O)n1-c1ccccc1)Nc1ccc2c(c1)CCC2 | 76.9% (inactive) and 77% (inactive)
O=C(CCSc1nc2ccccc2c(=O)n1-c1ccc(F)c(Cl)c1)Nc1ccc2c(c1)CCC2 | 77.6% (inactive)
O=C(CSc1nc2cccc(F)c2c(=O)n1-c1ccccc1)Nc1ccc2c(c1)OCO2 | 76.3% (inactive)
O=C(COc1nc2ccccc2c(=O)n1-c1ccccc1)Nc1ccc2c(c1)CCC2 | 71.6% (inactive)
O=C(CSc1nc2ccccc2c(=O)n1-c1ccc(Cl)c(Cl)c1)N1CCCCCC1 | 74.5% (inactive)
O=C(CCCCSc1nc2ccccc2c(=O)n1-c1cc(F)c(F)c(F)c1)Nc1ccc2c(c1)CCC2 | 70.2% (inactive)
O=C(CSc1nc2ccccc2c(=O)n1-c1ccc(F)c(Cl)c1)Nc1cccc2ccccc12 | 75.5% (inactive)
O=C(CSc1nc2ccccc2c(=O)n1-c1ccccc1)NC1CCc2ccccc21 (configuration not stated) | 75.5% (inactive)
O=C(CCCSc1nc2cccc(F)c2c(=O)n1-c1ccc(F)c(F)c1)Nc1ccc2c(c1)CCC2 | 78% (inactive)
O=C(CCCCSc1nc2cccc(F)c2c(=O)n1-c1ccc(Cl)c(F)c1)Nc1ccc2c(c1)CCC2 | 81.9% (inactive)
O=C(CSc1nc2ccccc2c(=O)n1-c1ccc(Cl)c(Cl)c1)Nc1ccc2scnc2c1 | 75.5% (inactive)

System: Vero E6 viability, CellTiter-Glo luminescence, 72 h
Experiment: as above
Conditions: not given

Compound | CC50 [µM]
O=C(CCCCSc1nc2ccccc2c(=O)n1-c1ccccc1)Nc1ccc2c(c1)CCC2 | 50
O=C(CCSc1nc2cccc(F)c2c(=O)n1-c1ccccc1)Nc1ccc2c(c1)CCC2 | 52.6
O=C(CSc1nc2ccccc2c(=O)n1-c1cc(F)c(F)c(F)c1)Nc1ccc2c(c1)OCO2 | 32.8
Cc1cnc(NC(=O)CSc2nc3ccccc3c(=O)n2-c2ccc(Cl)c(Cl)c2)s1 | 28.8
O=C(CCCCSc1nc2ccccc2c(=O)n1-c1ccc(F)c(Cl)c1)Nc1ccc2c(c1)CCC2 | 93.9
Cn1c(NC(=O)CSc2nc3ccccc3c(=O)n2-c2ccccc2)nc2ccccc21 | 16.4
O=C(CSc1nc2ccccc2c(=O)n1-c1ccc(Cl)c(Cl)c1)Nc1ncc([N+](=O)[O-])s1 | 21.7
O=C(CSc1nc2ccccc2c(=O)n1-c1ccc(Cl)c(Cl)c1)Nc1nccs1 | 14.9
O=C(CSc1nc2ccccc2c(=O)n1-c1ccc(Cl)c(Cl)c1)Nc1nc2cc(Cl)ccc2o1 | 18.8
Cc1nc2cc(NC(=O)CSc3nc4ccccc4c(=O)n3-c3ccc(Cl)c(Cl)c3)ccc2s1 | 18
O=C(CSc1nc2ccccc2c(=O)n1-c1cc(Cl)cc(Cl)c1)Nc1nccs1 | 18
O=C(CSc1nc2ccccc2c(=O)n1-c1ccccc1)Nc1cccc2c1CCC2 | 37.3
O=C(CSc1nc2ccccc2c(=O)n1-c1cc(Cl)cc(Cl)c1)Nc1cccc2c1CCC2 | 17.5
O=C(CSc1nc2ccccc2c(=O)n1-c1ccccc1)Nc1nc2ccc([N+](=O)[O-])cc2s1 | 40.5
O=C(CSc1nc2ccccc2c(=O)n1-c1ccccc1)Nc1nc2cc(Cl)ccc2o1 | 31.7
O=C(CSc1nc2ccccc2c(=O)n1-c1ccccc1)Nc1ccc2c(c1)OCO2 | 57.3
O=C(CSc1nc2ccccc2c(=O)n1-c1cc(F)c(F)c(F)c1)NC1CCc2ccccc21 (configuration not stated) | 36
